From patent US20220221445A1, “USES OF PATIENT-DERIVED INTESTINAL ORGANOIDS FOR CELIAC DISEASE DIAGNOSIS SCREENING AND TREATMENT” (The Board of TrusteesoftheLelandStanfordJuniorUniversity, priority 2019, published 2022)

Test system: active CeD organoids
Test: IL-15 expression and IL-15 gain-of-function in CeD organoids
Format: cell-based, human
Details: gain-of-function treatment
Text: IL-15 loss-of-function is studied in gliadin-treated, active CeD organoids +/− IL-15 neutralization by soluble recombinant IL-15 receptor (soluble hIL15Rα, R&D #7194-IR) or anti-human IL-15 neutralizing antibody (R&D #MAB647). Endpoints include inhibition of the following gliadin-induced responses: (1) HLA-DQ2:gliadin tetramer-positive T cell abundance by FACS, (2) tetramer(+) CD4^+ T cell or tetramer(−) CD8^+ IEL activation by scRNA-seq and Nanostring digital transcript counting of FACS-sorted immune subsets and (3) inhibition of gliadin-induced epithelial apoptosis and proliferation. Gain-of-function recombinant IL-15 treatment (R&D #247-ILB) of CeD organoids enhances gliadin-induced (1) expansion of HLA-DQ2:gliadin tetramer^82-positive T cells by FACS, (2) activation of these tetramer(+) CD4^+ T cells or tetramer(−) CD8^+ IELs by scRNA-seq and FACS/Nanostring analysis of immune subsets and (3) induction of epithelial apoptosis and proliferation.

## recombinant IL-15: recombinant IL-15 (R&D #247-ILB)
  effect on gliadin-induced tetramer-positive T cell expansion, T cell activation, epithelial apoptosis and proliferation: enhances
